{
  "source": "patent US7452894B2",
  "about": "“Purine derivatives as purinergic receptor antagonists” (Vernalis Research Limited, priority 2001, dated 2008)",
  "data": [
    {"values": [
      {"smiles": "Cc1ccc(-c2nc(N)nc3c2ncn3C(=O)NCc2ccccc2)o1", "note": "[Example 204, 2-Amino-N-benzyl-6-(5-methyl-2-furyl)-9H-purine-9-carboxamide]", "melting point": "160 °C (dec.)"},
      {"smiles": "CNc1nc(-c2ccco2)c2ncn(COCC[Si](C)(C)C)c2n1", "melting point": "160.1 to 160.8 °C"},
      {"smiles": "Nc1nc(-c2ccco2)c2ncn(C(=O)C3CCCCC3)c2n1", "note": "[Example 28, 9-Cyclohexylcarbonyl-6-(2-furyl)-9H-purine-2-amine]", "melting point": "> 300 °C (dec.)"},
      {"smiles": "COc1ccccc1CNC(=O)Cn1cnc2c(-c3ccco3)nc(N)nc21", "note": "[Example 236, 2-Amino-6-(2-furyl)-N-(2-methoxybenzyl)-9H-purine-9-acetamide]", "melting point": "279.9 to 281 °C"},
      {"smiles": "Nc1nc(-c2cncs2)c2nc[nH]c2n1", "note": "[Example 137, 6-(5-Thiazolyl)-1H-purine-2-amine]", "melting point": "300 °C (dec.)"},
      {"smiles": "C[Si](C)(C)CCOCn1cnc2c(-c3ccco3)nc(NCCO)nc21", "melting point": "125.9 to 126.4 °C"},
      {"smiles": "Nc1nc(-c2ccco2)c2ncn(C(=O)Oc3ccccc3)c2n1", "note": "[Example 22, Phenyl 2-amino-6-(2-furyl)-9H-purine-9-carboxylate]", "melting point": "> 300 °C (dec.)"},
      {"smiles": "CCOC(=O)Cn1cnc2c(-c3ccco3)nc(-c3ccco3)nc21", "note": "[Example 72, Ethyl 2,6-bis(2-furyl)-9H-purine-9-acetate]", "melting point": "314 °C"},
      {"smiles": "COc1cc(Cn2cnc3c(-c4ccco4)nc(N)nc32)cc(OC)c1", "note": "[Example 219, 9-(3,5-Dimethoxybenzyl)-6-(2-furyl)-9H-purine-2-amine]", "melting point": "205.3 to 205.4 °C"},
      {"smiles": "Nc1nc(-c2ccco2)c2ncn(CC(=O)NCCc3ccccc3)c2n1", "note": "[Example 123, 2-Amino-6-(2-furyl)-N-(2-phenylethyl)-9H-purine-9-acetamide]", "melting point": "247.3 to 247.4 °C"},
      {"smiles": "NC(=O)Cn1cnc2c(-c3ccco3)nc(N)nc21", "note": "[Example 87, 2-Amino-6-(2-furyl)-9H-purine-9-acetamide]", "melting point": "321.5 to 321.6 °C"},
      {"smiles": "Nc1nc(-c2ccc(Cl)s2)c2ncn(C(=O)NCc3ccccc3)c2n1", "note": "[Example 130, 2-Amino-N-benzyl-6-(5-chloro-2-thienyl)-9H-purine-9-carboxamide]", "melting point": "194 to 195 °C (dec.)"},
      {"smiles": "CC(C)(C)OC(=O)n1cnc2c(-c3cccs3)nc(N)nc21", "note": "[Example 78, tert-Butyl 2-amino-6-(2-thienyl)-9H-purine-9-carboxylate]", "melting point": "> 250 °C (dec.)"},
      {"smiles": "CC(C)(C)c1ccc(S(=O)(=O)n2cnc3c(-c4ccco4)nc(N)nc32)cc1", "note": "[Example 27, 9-(4-tert-Butylphenylsulphonyl)-6-(2-furyl)-9H-purine-2-amine]", "melting point": "238.7 to 239.2 °C"},
      {"smiles": "Nc1nc(-c2ccco2)c2ncn(CC(=O)NCc3ccco3)c2n1", "note": "[Example 218, 2-Amino-6-(2-furyl)-N-(2-furylmethyl)-9H-purine-9-acetamide]", "melting point": "276.4 to 276.9 °C"},
      {"smiles": "Cc1noc(C)c1S(=O)(=O)Nc1ccccc1Cn1cnc2c(-c3ccco3)nc(N)nc21", "note": "[Example 239, 6-(2-Furyl)-9-(2-(3,5-dimethylisoxazol-4-ylsulphonylamino)benzyl)-9H-purine-2-amine]", "melting point": "251.4 to 253.1 °C"},
      {"smiles": "CCOC(=O)Cn1cnc2c(-c3ccco3)nc(N(C)C)nc21", "note": "[Example 71, Ethyl 2-dimethylamino-6-(2-furyl)-9H-purine-9-acetate]", "melting point": "180.6 to 181.8 °C"},
      {"smiles": "CC(C)(C)OC(=O)n1cnc2c(-c3ccco3)nc(Cl)nc21", "note": "[Example 7, tert-Butyl 2-chloro-6-(2-furyl)-9H-purine-9-carboxylate]", "melting point": "> 305 °C (dec.)"},
      {"smiles": "NCCn1cnc2c(-c3ccco3)nc(N)nc21", "note": "[Example 257, 9-(2-Aminoethyl)-6-(2-furyl)-9H-purine-2-amine]", "melting point": "190 °C (dec.)"},
      {"smiles": "Nc1nc(-c2ccco2)c2ncn(CC(=O)NCCO)c2n1", "note": "[Example 96, 2-Amino-6-(2-furyl)-N-(2-hydroxyethyl)-9H-purine-9-acetamide]", "melting point": "> 250 °C (dec.)"},
      {"smiles": "Cc1noc(C)c1Cn1cnc2c(-c3ccco3)nc(N)nc21", "note": "[Example 229, 9-(3,5-Dimethylisoxazol-4-ylmethyl)-6-(2-furyl)-9H-purine-2-amine]", "melting point": "282.4 to 282.6 °C"},
      {"smiles": "O=C(NC1CCCCC1)n1cnc2c(-c3ccco3)nc(Cl)nc21", "note": "[Example 31, 2-Chloro-N-cyclohexyl-6-(2-furyl)-9H-purine-9-carboxamide]", "melting point": "177.4 to 177.8 °C"},
      {"smiles": "Clc1nc(-c2ccco2)c2nc[nH]c2n1", "note": "[Example 8, 2-Chloro-6-(2-furyl)-1H-purine]", "melting point": "> 303 °C (dec.)"},
      {"smiles": "Nc1nc(-c2cc3ccccc3o2)c2nc[nH]c2n1", "note": "[Example 120, 6-(Benzofuran-2-yl)-1H-purine-2-amine]", "melting point": "310 to 310.3 °C"},
      {"smiles": "CCCNC(=O)Cn1cnc2c(-c3ccco3)nc(N)nc21", "note": "[Example 124, 2-Amino-6-(2-furyl)-N-n-propyl-9H-purine-9-acetamide]", "melting point": "258.7 to 260.1 °C"},
      {"smiles": "COc1nc(-c2ccco2)c2ncn(COCC[Si](C)(C)C)c2n1", "melting point": "79.6 °C (dec.)"},
      {"smiles": "CNc1nc(-c2ccco2)c2nc[nH]c2n1", "note": "[Example 18, 6-(2-Furyl)-N-methyl-1H-purine-2-amine]", "melting point": "235 to 236 °C (dec.)"},
      {"smiles": "Nc1nc(-c2ccco2)c2ncn(CCN3C(=O)c4ccccc4C3=O)c2n1", "note": "[Example 174, 6-(2-Furyl)-9-(2-phthalimidoethyl)-9H-purine-2-amine]", "melting point": "160 °C (dec.)"},
      {"smiles": "CC(C)(C)OC(=O)n1ccc2c(Cn3cnc4c(-c5ccco5)nc(N)nc43)cccc21", "note": "[Example 270, tert-butyl 4-(2-amino-6-(2-furyl)-1H-purine-9-ylmethyl)indole-1-carboxylate]", "melting point": "190.4 to 190.5 °C"},
      {"smiles": "CC(C)CC(=O)n1cnc2c(-c3ccco3)nc(N)nc21", "note": "[Example 33, 6-(2-Furyl)-9-(3-methylbutyryl)-9H-purine-2-amine]", "melting point": "175.4 to 176.1 °C"},
      {"smiles": "CN1CCN(C(=O)Cn2cnc3c(-c4ccco4)nc(N)nc32)CC1", "note": "[Example 97, 6-(2-Furyl)-9-(2-oxo-2-(4-methyl-1-piperazinyl)ethyl)-9H-purine-2-amine]", "melting point": "> 270 °C (dec.)"},
      {"smiles": "Cc1ccc(Cn2cnc3c(-c4ccco4)nc(C#N)nc32)cc1", "note": "[Example 173, 6-(2-Furyl)-9-(4-methylbenzyl)-9H-purine-2-carbonitrile]", "melting point": "196.5 °C (dec.)"},
      {"smiles": "Cc1nc(-c2ccco2)c2nc[nH]c2n1", "note": "[Example 153, 6.(2-Furyl)-2-methyl-1H-purine]", "melting point": "342 °C (dec.)"},
      {"smiles": "Nc1nc(-c2ccco2)c2ncn(Cc3cccc4[nH]ccc34)c2n1", "note": "[Example 271, 6-(2-Furyl)-9-(4-indolylmethyl)-9H-purine-2-amine]", "melting point": "305.4 to 306.8 °C"},
      {"smiles": "Nc1nc(-c2ccco2)c2ncn(Cc3ccc(C(=O)O)cc3)c2n1", "note": "[Example 216, 4-(2-Amino-6-(2-furyl)-9H-purine-9-ylmethyl)benzoic acid]", "melting point": "301.1 to 302.1 °C"},
      {"smiles": "CS(=O)(=O)Nc1cccc(Cn2cnc3c(-c4ccco4)nc(N)nc32)c1", "note": "[Example 217, 6-(2-Furyl)-9-(3-methanesulphonylaminobenzyl)-9H-purine-2-amine]", "melting point": "171.2 to 171.3 °C"},
      {"smiles": "Nc1nc(-c2ccco2)c2ncn(CC(=O)NCc3ccc(Cl)cc3)c2n1", "note": "[Example 144, 2-Amino-N-(4-chlorobenzyl)-6-(2-furyl)-9H-purine-9-acetamide]", "melting point": "277 °C (dec.)"}
    ]}
  ]
}
